How the values were obtained:
Conditions in all cases: Compound concentration 10 µM
[1] = target: T1, Alpha-1A adrenergic receptor (Homo sapiens) (UniProt P35348)
T1 sequence (whole entry): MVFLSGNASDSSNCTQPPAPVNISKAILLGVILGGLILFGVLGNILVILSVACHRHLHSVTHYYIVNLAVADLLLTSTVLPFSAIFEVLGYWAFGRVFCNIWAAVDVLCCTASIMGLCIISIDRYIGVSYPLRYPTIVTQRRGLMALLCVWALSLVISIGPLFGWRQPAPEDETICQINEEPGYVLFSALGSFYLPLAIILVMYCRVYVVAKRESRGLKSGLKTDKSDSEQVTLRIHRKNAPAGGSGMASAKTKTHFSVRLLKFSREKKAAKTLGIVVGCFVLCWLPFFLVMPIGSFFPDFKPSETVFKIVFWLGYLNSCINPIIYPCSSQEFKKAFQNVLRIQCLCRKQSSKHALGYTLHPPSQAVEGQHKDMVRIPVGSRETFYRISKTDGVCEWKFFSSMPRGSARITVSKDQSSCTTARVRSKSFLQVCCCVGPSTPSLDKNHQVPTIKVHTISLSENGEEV
Description: PDSP Primary Binding target: ADRA1A - Compounds are tested at 10 uM concentration, plate are incubated at room temperature in the dark for 90 minutes. Reaction are stopped by vacuum filtration onto 0.3% polyethyleneimine soaked filter mats using Filtermate harvester. Scintilation cocktail is then melted onto microwave-dried filters on a hot plate and the radio activity is counted in Microbia counter.

[2] = target: Mu-type opioid receptor (Homo sapiens) (UniProt P35372)
Mu-type opioid receptor (Homo sapiens), sequence (P35372 whole entry): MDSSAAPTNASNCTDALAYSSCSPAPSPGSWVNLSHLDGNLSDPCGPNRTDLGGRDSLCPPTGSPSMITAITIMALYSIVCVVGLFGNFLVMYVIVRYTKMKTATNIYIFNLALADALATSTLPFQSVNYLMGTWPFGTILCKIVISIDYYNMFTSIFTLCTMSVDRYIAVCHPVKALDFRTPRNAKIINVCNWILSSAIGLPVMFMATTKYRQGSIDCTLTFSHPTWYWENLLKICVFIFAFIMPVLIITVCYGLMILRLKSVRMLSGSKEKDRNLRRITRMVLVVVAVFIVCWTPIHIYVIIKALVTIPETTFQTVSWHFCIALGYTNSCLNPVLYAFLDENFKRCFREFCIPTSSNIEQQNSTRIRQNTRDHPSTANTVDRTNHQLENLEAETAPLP
Description: PDSP Primary Binding target: OPRM1 - Compounds are tested at 10 uM concentration, plate are incubated at room temperature in the dark for 90 minutes. Reaction are stopped by vacuum filtration onto 0.3% polyethyleneimine soaked filter mats using Filtermate harvester. Scintilation cocktail is then melted onto microwave-dried filters on a hot plate and the radio activity is counted in Microbia counter.

[3] = target: T2, D(4) dopamine receptor (Homo sapiens) (UniProt P21917)
T2 sequence (whole entry): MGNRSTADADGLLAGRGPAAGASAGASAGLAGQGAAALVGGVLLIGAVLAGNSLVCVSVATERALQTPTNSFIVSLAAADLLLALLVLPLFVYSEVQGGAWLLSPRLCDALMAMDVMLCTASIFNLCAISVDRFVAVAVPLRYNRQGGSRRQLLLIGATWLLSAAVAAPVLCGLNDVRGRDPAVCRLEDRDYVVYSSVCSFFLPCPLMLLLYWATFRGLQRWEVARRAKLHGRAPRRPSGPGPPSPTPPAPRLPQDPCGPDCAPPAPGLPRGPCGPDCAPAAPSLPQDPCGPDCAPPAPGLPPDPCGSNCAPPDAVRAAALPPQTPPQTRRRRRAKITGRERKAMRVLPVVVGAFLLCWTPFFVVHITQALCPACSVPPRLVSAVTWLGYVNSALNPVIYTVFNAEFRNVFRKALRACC
Description: PDSP Primary Binding target: DRD4 - Compounds are tested at 10 uM concentration, plate are incubated at room temperature in the dark for 90 minutes. Reaction are stopped by vacuum filtration onto 0.3% polyethyleneimine soaked filter mats using Filtermate harvester. Scintilation cocktail is then melted onto microwave-dried filters on a hot plate and the radio activity is counted in Microbia counter.

[4] = target: T3, 5-hydroxytryptamine receptor 2C (Homo sapiens) (UniProt P28335)
T3 sequence (whole entry): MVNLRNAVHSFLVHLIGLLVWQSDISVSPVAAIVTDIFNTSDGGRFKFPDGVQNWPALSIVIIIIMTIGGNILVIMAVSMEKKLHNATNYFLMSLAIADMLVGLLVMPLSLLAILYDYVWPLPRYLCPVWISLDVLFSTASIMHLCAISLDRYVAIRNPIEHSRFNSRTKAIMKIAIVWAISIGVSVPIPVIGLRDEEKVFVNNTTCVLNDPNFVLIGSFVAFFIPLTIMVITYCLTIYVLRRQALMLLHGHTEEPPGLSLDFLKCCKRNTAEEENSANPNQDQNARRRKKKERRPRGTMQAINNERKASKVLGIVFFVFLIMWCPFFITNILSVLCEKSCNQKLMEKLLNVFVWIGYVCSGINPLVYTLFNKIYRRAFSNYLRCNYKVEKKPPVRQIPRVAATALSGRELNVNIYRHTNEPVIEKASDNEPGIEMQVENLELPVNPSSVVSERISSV
Description: PDSP Primary Binding target: HTR2C - Compounds are tested at 10 uM concentration, plate are incubated at room temperature in the dark for 90 minutes. Reaction are stopped by vacuum filtration onto 0.3% polyethyleneimine soaked filter mats using Filtermate harvester. Scintilation cocktail is then melted onto microwave-dried filters on a hot plate and the radio activity is counted in Microbia counter.

[5] = target: Kappa-type opioid receptor (Homo sapiens) (UniProt P41145)
Kappa-type opioid receptor (Homo sapiens), sequence (P41145 whole entry): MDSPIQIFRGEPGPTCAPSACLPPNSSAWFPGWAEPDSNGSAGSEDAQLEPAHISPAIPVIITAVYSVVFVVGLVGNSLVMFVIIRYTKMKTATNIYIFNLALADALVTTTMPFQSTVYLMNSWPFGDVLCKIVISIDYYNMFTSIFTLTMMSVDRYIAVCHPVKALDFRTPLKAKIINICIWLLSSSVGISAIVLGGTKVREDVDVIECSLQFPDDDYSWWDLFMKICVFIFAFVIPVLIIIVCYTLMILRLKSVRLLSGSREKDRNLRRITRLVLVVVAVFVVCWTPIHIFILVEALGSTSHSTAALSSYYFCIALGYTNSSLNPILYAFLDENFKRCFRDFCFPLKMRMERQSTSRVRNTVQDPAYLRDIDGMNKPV
Description: PDSP Primary Binding target: OPRK1 - Compounds are tested at 10 uM concentration, plate are incubated at room temperature in the dark for 90 minutes. Reaction are stopped by vacuum filtration onto 0.3% polyethyleneimine soaked filter mats using Filtermate harvester. Scintilation cocktail is then melted onto microwave-dried filters on a hot plate and the radio activity is counted in Microbia counter.

[6] = target: Histamine H1 receptor (Homo sapiens) (UniProt P35367)
Histamine H1 receptor (Homo sapiens), sequence (P35367 whole entry): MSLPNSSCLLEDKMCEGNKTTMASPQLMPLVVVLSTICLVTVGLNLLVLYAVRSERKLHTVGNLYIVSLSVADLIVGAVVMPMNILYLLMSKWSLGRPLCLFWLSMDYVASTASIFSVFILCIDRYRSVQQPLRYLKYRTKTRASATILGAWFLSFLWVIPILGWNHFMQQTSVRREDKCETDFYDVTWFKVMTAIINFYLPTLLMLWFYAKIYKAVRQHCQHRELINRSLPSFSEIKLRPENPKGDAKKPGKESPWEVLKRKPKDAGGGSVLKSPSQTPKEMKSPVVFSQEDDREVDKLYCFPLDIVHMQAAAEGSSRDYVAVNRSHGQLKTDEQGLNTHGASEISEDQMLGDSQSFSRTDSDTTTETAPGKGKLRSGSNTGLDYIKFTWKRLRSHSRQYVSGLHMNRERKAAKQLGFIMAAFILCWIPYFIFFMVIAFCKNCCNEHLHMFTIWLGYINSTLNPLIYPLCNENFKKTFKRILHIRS
Description: PDSP Primary Binding target: HRH1 - Compounds are tested at 10 uM concentration, plate are incubated at room temperature in the dark for 90 minutes. Reaction are stopped by vacuum filtration onto 0.3% polyethyleneimine soaked filter mats using Filtermate harvester. Scintilation cocktail is then melted onto microwave-dried filters on a hot plate and the radio activity is counted in Microbia counter.

[7] = target: T4, Muscarinic acetylcholine receptor M1 (Homo sapiens) (UniProt P11229)
T4 sequence (whole entry): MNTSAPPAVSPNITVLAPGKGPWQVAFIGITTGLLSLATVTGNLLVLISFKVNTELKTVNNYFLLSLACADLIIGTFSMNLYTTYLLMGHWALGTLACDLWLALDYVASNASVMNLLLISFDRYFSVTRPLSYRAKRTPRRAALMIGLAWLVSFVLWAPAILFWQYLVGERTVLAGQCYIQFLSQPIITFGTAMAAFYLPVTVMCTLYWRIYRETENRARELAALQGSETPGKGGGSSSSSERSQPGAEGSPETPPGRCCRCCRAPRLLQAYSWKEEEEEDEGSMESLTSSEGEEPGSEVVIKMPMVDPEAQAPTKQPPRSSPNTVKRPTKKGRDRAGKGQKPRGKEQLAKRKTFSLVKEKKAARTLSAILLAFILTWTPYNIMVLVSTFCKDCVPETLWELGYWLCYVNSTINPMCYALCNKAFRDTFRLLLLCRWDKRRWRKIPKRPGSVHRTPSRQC
Description: PDSP Primary Binding target: CHRM1 - Compounds are tested at 10 uM concentration, plate are incubated at room temperature in the dark for 90 minutes. Reaction are stopped by vacuum filtration onto 0.3% polyethyleneimine soaked filter mats using Filtermate harvester. Scintilation cocktail is then melted onto microwave-dried filters on a hot plate and the radio activity is counted in Microbia counter.

[8] = target: T5, Muscarinic acetylcholine receptor M4 (Homo sapiens) (UniProt P08173)
T5 sequence (whole entry): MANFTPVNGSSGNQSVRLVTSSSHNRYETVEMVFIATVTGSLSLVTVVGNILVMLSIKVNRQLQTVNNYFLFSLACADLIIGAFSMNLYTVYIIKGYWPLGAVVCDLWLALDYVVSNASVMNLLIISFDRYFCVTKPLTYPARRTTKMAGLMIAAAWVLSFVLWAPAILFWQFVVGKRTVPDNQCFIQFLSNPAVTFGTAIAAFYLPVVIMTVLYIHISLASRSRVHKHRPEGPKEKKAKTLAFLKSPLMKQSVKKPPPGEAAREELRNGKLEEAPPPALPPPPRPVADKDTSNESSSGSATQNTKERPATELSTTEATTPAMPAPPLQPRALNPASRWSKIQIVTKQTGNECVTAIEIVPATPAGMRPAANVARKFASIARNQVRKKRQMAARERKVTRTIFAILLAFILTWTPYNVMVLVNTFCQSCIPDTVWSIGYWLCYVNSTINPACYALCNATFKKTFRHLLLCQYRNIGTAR
Description: PDSP Primary Binding target: CHRM4 - Compounds are tested at 10 uM concentration, plate are incubated at room temperature in the dark for 90 minutes. Reaction are stopped by vacuum filtration onto 0.3% polyethyleneimine soaked filter mats using Filtermate harvester. Scintilation cocktail is then melted onto microwave-dried filters on a hot plate and the radio activity is counted in Microbia counter.

[9] = target: T6, Alpha-2B adrenergic receptor (Homo sapiens) (UniProt P18089)
T6 sequence (whole entry): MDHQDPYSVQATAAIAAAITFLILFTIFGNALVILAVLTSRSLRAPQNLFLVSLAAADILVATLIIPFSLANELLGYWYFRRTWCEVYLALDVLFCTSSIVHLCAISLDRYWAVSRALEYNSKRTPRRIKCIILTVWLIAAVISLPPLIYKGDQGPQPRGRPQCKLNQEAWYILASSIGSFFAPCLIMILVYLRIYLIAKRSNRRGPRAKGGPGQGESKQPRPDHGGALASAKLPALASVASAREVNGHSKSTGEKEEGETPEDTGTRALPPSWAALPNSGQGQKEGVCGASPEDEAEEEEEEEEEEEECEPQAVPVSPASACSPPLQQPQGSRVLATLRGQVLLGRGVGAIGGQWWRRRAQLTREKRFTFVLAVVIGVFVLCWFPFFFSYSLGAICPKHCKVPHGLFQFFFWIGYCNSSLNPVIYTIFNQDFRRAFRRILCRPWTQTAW
Description: PDSP Primary Binding target: ADRA2B - Compounds are tested at 10 uM concentration, plate are incubated at room temperature in the dark for 90 minutes. Reaction are stopped by vacuum filtration onto 0.3% polyethyleneimine soaked filter mats using Filtermate harvester. Scintilation cocktail is then melted onto microwave-dried filters on a hot plate and the radio activity is counted in Microbia counter.

| SMILES | inhibition [1] [%] | inhibition [2] [%] | inhibition [3] [%] | inhibition [4] [%] | inhibition [5] [%] | inhibition [6] [%] | inhibition [7] [%] | inhibition [8] [%] | inhibition [9] [%] |
| --- | --- | --- | --- | --- | --- | --- | --- | --- | --- |
| O=c1ccc2ccc(OCCCCN3CCN(c4cccc5sccc45)CC3)cc2[nH]1 | 100 | 26.8 | 101 | 103 | 13.9 | 100 | 30.3 | 30.5 | 94.3 |
| O=C(O)COc1cccc(CN(Cc2ccc(-n3cccn3)cc2)S(=O)(=O)c2cccnc2)c1 | -1.12 | -4.37 | 4.77 | 29.9 | -1.11 | 1.83 | 3.45 | -2.13 | -5.85 |
| C[N+]1(C)[C@@H]2C[C@@H](OC(=O)C(O)(c3cccs3)c3cccs3)C[C@H]1[C@@H]1O[C@@H]12 | 3.89 | 10.3 | 20 | -6.52 | -0.32 | 92.1 | 94.5 | 98.8 | 8.74 |
